What all share (assay): In vitro antibacterial activity, broth microdilution MIC90
Common to all, as to format: cell-based

One assay deals with Enterococcus faecalis. The method in brief: (§1)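 Broth microdilution per CLSI M7-A5 guidelines, run against a 12-strain panel of staphylococci, enterococci and Moraxella catarrhalis. Final test compound concentrations spanned 0.063 to 128 μg/mL with 2.5% (V/V) DMSO as excipient; linezolid served as control.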
Assay [1] relates to Methicillin Resistant Staphylococcus epidermidis. In outline:
as §1

For assay [2], the system named is Linezolid and Vancomycin Resistant Enterococcus faecium (strain 10). In outline:
as §1

Another assay relates to Staphylococcus aureus. In outline: as §1
The test system of assay [3] is Vancomycin Resistant Enterococcus faecium. In outline:
as §1

For assay [4], the system named is Methicillin Resistant Staphylococcus aureus. In outline:
as §1

The test system of assay [5] is Linezolid and Vancomycin Resistant Enterococcus faecalis. In outline:
as §1

The test system of another assay is Enterococcus faecium. The method in brief:
as §1

Assay [6] deals with Linezolid and Vancomycin Resistant Enterococcus faecium (strain 11). In outline: as §1
For assay [7], the system named is Staphylococcus epidermidis. The method in brief:
as §1

Assay [8] has as its system Vancomycin Resistant Enterococcus faecalis. The method in brief: as §1
For a further assay, the system named is Moraxella catarrhalis. In outline:
as §1

Setting [9] is: Enterococcus faecalis, strain 5, E. faecalis, read-out: MIC90.
[10] abbreviates: Staphylococcus epidermidis, strain 4, S. epidermidis MR, read-out: MIC90.
Where [11] appears, read: Enterococcus faecium, strain 10, E. faecium VanA LR, read-out: MIC90.
The mark [12] stands for this setting: Staphylococcus aureus, strain 1, S. aureus, read-out: MIC90.
Where [13] appears, read: Enterococcus faecium, strain 9, E. faecium VanA, read-out: MIC90.
The mark [14] stands for this setting: Staphylococcus aureus, strain 2, S. aureus MR, read-out: MIC90.
Setting [15] is: Enterococcus faecalis, strain 7, E. faecalis VanA LR, read-out: MIC90.
[16] abbreviates: Enterococcus faecium, strain 8, E. faecium, read-out: MIC90.
Setting [17] is: Enterococcus faecium, strain 11, E. faecium VanA LR, read-out: MIC90.
The mark [18] stands for this setting: Staphylococcus epidermidis, strain 3, S. epidermidis, read-out: MIC90.
The mark [19] stands for this setting: Enterococcus faecalis, strain 6, E. faecalis VanA, read-out: MIC90.
[20] abbreviates: Moraxella catarrhalis, strain 12, M. catarrhalis, read-out: MIC90.

This note sets out measurements from US8846669B2, “Oxazolidinone derivative and medical composition containing same” (Legochem Biosciences, Inc., priority 2011, dated 2014).

Molecules are shown by their SMILES. Converted amounts (≈) assume the structure as drawn. Where two headings read alike, the source gives them in different places.

The MIC90 is an inhibitory concentration at the 90% level, which refers to growth in some studies and to a panel of isolates in others. As to `CNC(=O)N1CCN(c2ccc(-c3ccc(N4C[C@H](CNC(C)=O)OC4=O)cc3F)cn2)C=N1` [Compound 16], the MIC90 against Enterococcus faecalis (Enterococcus faecalis) was determined as 0.25 µg/mL (≈ 0.533 µM); in assay [1] (Staphylococcus epidermidis), 1 µg/mL (≈ 2.13 µM); in assay [2] (Enterococcus faecium) it was 2 µg/mL (≈ 4.26 µM); in the assay with Staphylococcus aureus (Staphylococcus aureus), 0.25 µg/mL (≈ 0.533 µM); in assay [3] (Enterococcus faecium) it was 0.5 µg/mL (≈ 1.07 µM); in assay [4] (Staphylococcus aureus), 1 µg/mL (≈ 2.13 µM). Further, the MIC90 in assay [5] (Enterococcus faecalis) is 1 µg/mL (≈ 2.13 µM); against Enterococcus faecium (Enterococcus faecium), 0.5 µg/mL (≈ 1.07 µM); in assay [6] (Enterococcus faecium), 2 µg/mL (≈ 4.26 µM); in assay [7] (Staphylococcus epidermidis), 0.25 µg/mL (≈ 0.533 µM); in assay [8] (Enterococcus faecalis), 0.5 µg/mL (≈ 1.07 µM); in the assay with Moraxella catarrhalis (Moraxella catarrhalis), 2 µg/mL (≈ 4.26 µM).
Take `CC(=O)NC[C@H]1CN(c2ccc(-c3ccc(N4C=NN(C(=O)C5COC(C)(C)O5)CC4)nc3)c(F)c2)C(=O)O1` (stereo partly drawn) [Compound 20]: the MIC90 against Enterococcus faecalis (Enterococcus faecalis) was determined as 2 µg/mL (≈ 3.7 µM); in assay [1] (Staphylococcus epidermidis) it was 4 µg/mL (≈ 7.4 µM); in assay [2] (Enterococcus faecium), 8 µg/mL (≈ 14.8 µM); in the assay with Staphylococcus aureus (Staphylococcus aureus) it was 2 µg/mL (≈ 3.7 µM); in assay [3] (Enterococcus faecium), 2 µg/mL (≈ 3.7 µM); in [4] (Staphylococcus aureus), 8 µg/mL (≈ 14.8 µM). Besides, the MIC90 in [5] (Enterococcus faecalis) came to 8 µg/mL (≈ 14.8 µM); with Enterococcus faecium (Enterococcus faecium), 2 µg/mL (≈ 3.7 µM); in assay [6] (Enterococcus faecium), 8 µg/mL (≈ 14.8 µM); in assay [7] (Staphylococcus epidermidis), 4 µg/mL (≈ 7.4 µM); in assay [8] (Enterococcus faecalis), 2 µg/mL (≈ 3.7 µM); against Moraxella catarrhalis (Moraxella catarrhalis), 8 µg/mL (≈ 14.8 µM).
Take `O=C(CO)N1CCN(c2ccc(-c3ccc(N4C[C@H](COc5ccon5)OC4=O)cc3F)cn2)C=N1` [Compound 46]: the MIC90 against Enterococcus faecalis (strain 5, E. faecalis) was found to be 2 µg/mL (≈ 4.03 µM); in assay [1] (strain 4, S. epidermidis MR), 32 µg/mL (≈ 64.5 µM); in [2] (strain 10, E. faecium VanA LR), 128 µg/mL (≈ 258 µM); against Staphylococcus aureus (strain 1, S. aureus), 0.25 µg/mL (≈ 0.504 µM); in assay [3] (strain 9, E. faecium VanA), 2 µg/mL (≈ 4.03 µM); in assay [4] (strain 2, S. aureus MR) it was 0.5 µg/mL (≈ 1.01 µM). The MIC90 in [5] (strain 7, E. faecalis VanA LR) was 128 µg/mL (≈ 258 µM); against Enterococcus faecium (strain 8, E. faecium), 0.5 µg/mL (≈ 1.01 µM); in assay [6] (strain 11, E. faecium VanA LR) it was above 128 µg/mL; in assay [7] (strain 3, S. epidermidis) it was 0.5 µg/mL (≈ 1.01 µM); in [8] (strain 6, E. faecalis VanA), 4 µg/mL (≈ 8.06 µM); in the assay on Moraxella catarrhalis (strain 12, M. catarrhalis) it was above 128 µg/mL.
As to `O=C1O[C@@H](Cn2ccnn2)CN1c1ccc(-c2ccc(C3=NOCCN3)nc2)c(F)c1` [Compound 66], the MIC90 worked out at 0.25 µg/mL (≈ 0.59 µM) in the assay on Enterococcus faecalis (setting [9]); 0.5 µg/mL (≈ 1.18 µM) in assay [1] (setting [10]); 1 µg/mL (≈ 2.36 µM) in assay [2] (setting [11]); 0.125 µg/mL (≈ 0.295 µM) in the assay with Staphylococcus aureus (setting [12]); 0.25 µg/mL (≈ 0.59 µM) in assay [3] (setting [13]); 0.5 µg/mL (≈ 1.18 µM) in assay [4] (setting [14]). Also, the MIC90 was 1 µg/mL (≈ 2.36 µM) in [5] (setting [15]); 0.125 µg/mL (≈ 0.295 µM) in the assay with Enterococcus faecium (setting [16]); 2 µg/mL (≈ 4.72 µM) in assay [6] (setting [17]); 0.25 µg/mL (≈ 0.59 µM) in assay [7] (setting [18]); 0.25 µg/mL (≈ 0.59 µM) in assay [8] (setting [19]); 1 µg/mL (≈ 2.36 µM) in the assay on Moraxella catarrhalis (setting [20]).
For the molecule `CC(=O)NC[C@H]1CN(c2ccc(-c3ccc(N4CCNC=N4)nc3)c(F)c2)C(=O)O1` [Compound 53], the MIC90 in the assay on Enterococcus faecalis (Enterococcus faecalis) was 1 µg/mL (≈ 2.42 µM); in [1] (Staphylococcus epidermidis) it was 2 µg/mL (≈ 4.85 µM); in assay [2] (Enterococcus faecium) it was 4 µg/mL (≈ 9.7 µM); against Staphylococcus aureus (Staphylococcus aureus), 1 µg/mL (≈ 2.42 µM); in assay [3] (Enterococcus faecium) it was 1 µg/mL (≈ 2.42 µM); in [4] (Staphylococcus aureus), 2 µg/mL (≈ 4.85 µM). Also, the MIC90 was found to be 4 µg/mL (≈ 9.7 µM) in assay [5] (Enterococcus faecalis); 1 µg/mL (≈ 2.42 µM) against Enterococcus faecium (Enterococcus faecium); 4 µg/mL (≈ 9.7 µM) in assay [6] (Enterococcus faecium); 1 µg/mL (≈ 2.42 µM) in assay [7] (Staphylococcus epidermidis); 1 µg/mL (≈ 2.42 µM) in assay [8] (Enterococcus faecalis); 4 µg/mL (≈ 9.7 µM) with Moraxella catarrhalis (Moraxella catarrhalis).
Turning to `COC(=O)NC[C@H]1CN(c2ccc(-c3ccc(C4=NOCCN4C)nc3)c(F)c2)C(=O)O1` [Compound 70], the MIC90 was determined as 2 µg/mL (≈ 4.51 µM) in the assay on Enterococcus faecalis (setting [9]); 4 µg/mL (≈ 9.02 µM) in assay [1] (setting [10]); 8 µg/mL (≈ 18 µM) in assay [2] (setting [11]); 1 µg/mL (≈ 2.26 µM) in the assay on Staphylococcus aureus (setting [12]); 1 µg/mL (≈ 2.26 µM) in assay [3] (setting [13]); 2 µg/mL (≈ 4.51 µM) in [4] (setting [14]). Besides, the MIC90 in [5] (setting [15]) turned out to be 8 µg/mL (≈ 18 µM); with Enterococcus faecium (setting [16]), 1 µg/mL (≈ 2.26 µM); in [6] (setting [17]), 8 µg/mL (≈ 18 µM); in assay [7] (setting [18]) it was 1 µg/mL (≈ 2.26 µM); in [8] (setting [19]), 2 µg/mL (≈ 4.51 µM); with Moraxella catarrhalis (setting [20]), 4 µg/mL (≈ 9.02 µM).
Take `Cl.O=C1O[C@@H](CNc2ccon2)CN1c1ccc(-c2ccc(N3C=NNCC3)nc2)c(F)c1` [Compound 39]: the MIC90 against Enterococcus faecalis (strain 5, E. faecalis) came out at 0.5 µg/mL; in assay [1] (strain 4, S. epidermidis MR), 2 µg/mL; in assay [2] (strain 10, E. faecium VanA LR), 4 µg/mL; against Staphylococcus aureus (strain 1, S. aureus), 0.25 µg/mL; in assay [3] (strain 9, E. faecium VanA) it was 1 µg/mL; in assay [4] (strain 2, S. aureus MR), 0.5 µg/mL. The MIC90 in assay [5] (strain 7, E. faecalis VanA LR) worked out at 4 µg/mL; against Enterococcus faecium (strain 8, E. faecium), 0.25 µg/mL; in [6] (strain 11, E. faecium VanA LR), 4 µg/mL; in [7] (strain 3, S. epidermidis) it was 1 µg/mL; in assay [8] (strain 6, E. faecalis VanA), 1 µg/mL; in the assay on Moraxella catarrhalis (strain 12, M. catarrhalis) it was 2 µg/mL.
